Laboratory results reported in patent publication US7723473B2, “Peptide antagonists of TGF-beta family members and therapeutic uses thereof” (St. Louis University, priority 1997, dated 2010).

Legend:
[1] = tested on: TGF-β receptors; assay: Inhibition of specific binding of 125I-TGF-β1 to TGF-β receptors in mink lung epithelial cells; details: for effect on 125I-TGF-β1 binding to TGF-β receptors: even at a concentration of 136 μM; for inhibition of 125I-TGF-β1 binding to TGF-β receptors (in words): various concentrations, FIG. 1D / control experiments; for IC50: 0.1 nM 125I-TGF-β1, 2.5 hr at 0° C., read-out: IC50 for inhibiting 125I-TGF-β1 binding to TGF-β receptors; for IC50 lower than that of peptide β1^25 (41-65) prior to conjugation: 125I-TGF-β1 binding; for TGF-β antagonist activity compared with the cysteine-containing peptides: C44S/C48S versions
Experimental: Specific binding of ^125I-labeled TGF-β1, TGF-β2, and TGF-β3 (^125I-TGF-β1, ^125I-TGF-β2, and ^125I-TGF-β3) to TGF-β receptors in mink lung epithelial cells. ^125I-TGF-β1, ^125I-TGF-β2, and ^125I-TGF-β3 were prepared by iodination of TGF-β1, TGF-β2, and TGF-β3 with Na^125I as described previously (Ref. 7). The specific radioactivities of ^125I-TGF-β1, ^125I-TGF-β2, and ^125I-TGF-β3 were 1-3×10^5 cpm/ng. Mink lung epithelial cells were grown on 24-well clustered dishes to near confluence in Dulbecco's modified Eagle medium (DMEM) containing 10% fetal calf serum. The epithelial cells were incubated with 0.1 nM ^125I-TGF-β1, ^125I-TGF-β2, or ^125I-TGF-β3 both with and without 100-fold excess of unlabeled TGF-β1, TGF-β2, or TGF-β3 in binding buffer (Ref. 7). After 2.5 hr at 0° C., the cells were washed two times with binding buffer, and the cell-associated radioactivity was determined. […] All experiments were carried out in triplicate cell cultures.

[2] = target: type V TGF-β receptor (Homo sapiens, UniProt Q07954); details: Ref. 6; read-out: Kd for binding to the type V TGF-β receptor; cited from earlier work
[3] = tested on: PAI-1 expression; assay: PAI-1 expression in mink lung epithelial cells (Northern blot); assay type: cell-based; details: conjugates alone, data not shown
Experimental: RNA Analysis—Mink lung epithelial cells were grown overnight in 12-well clustered dishes in DMEM containing 10% fetal calf serum. The medium was then changed to DMEM containing 0.1% fetal calf serum and the cells were incubated with 0.25 and 2.5 ρM TGF-β1 in the presence of various concentrations of peptide β1^25 (41-65) for 2.5 hr. Total cellular RNA was extracted using RNAzol B (Tel-Test Inc.) according to the manufacturer's protocol. RNA was electrophoresed in 1.2% agarose-formaldehyde gel and transferred to Duralon-UV membranes using 10×SSC. The membranes were probed at 42° C. with a random-primed, radiolabeled 1-kb fragment from the Hind III and NeoI digests of PAI-1 cDNA and glyceraldehyde-3-phosphate dehydrogenase (“GAPDH”) cDNA. The blots were washed with 0.1×SSC containing 0.1% SDS at room temperature.

[4] = tested on: mink lung epithelial cells; assay: Mink lung epithelial cell growth measured by DNA synthesis without added TGF-β1 (agonist activity); assay type: cell-based; details: for EC50: no added TGF-β1, read-out: ED50 of growth inhibition as measured by DNA synthesis
Experimental: [Methyl-^3H]thymidine Incorporation—Mink lung epithelial cells grown on 24-well clustered dishes were incubated with various concentrations of TGF-β1 in the presence and absence of peptide β1^25 (41-65) or with various concentrations of peptide β1^25 (41-65)-CA, and peptide β1^25 (41-65)-BSA in DMEM containing 0.1% fetal calf serum. After 16 hr at 37° C., the cells were pulsed with 1 μCi/ml of [methyl-^3H]thymidine for 4 hr. The cells were then washed twice with 1 ml of 10% trichloroacetic acid and once with 0.5 ml of ethanol:ether (2:1, v/v). The cells were then dissolved in 0.4 ml of 0.2 N NaOH and counted with a liquid scintillation counter.

[5] = Stability in solution or gel during storage; assay type: physicochemical; details: compared with cysteine-containing peptides
From the text: Preparation of peptides. The amino acid sequences of all peptides were derived from those of TGF-β1, TGF-β2, and TGF-β3. For peptides β1^25 (41-65), β2^25 (41-65), and β3^25 (41-65), other versions in which cysteine-44 and cysteine-48 were replaced by serine residues were also synthesized. […] The C44S/C48S version of peptide β1^25 (41-65) is designated SEQ ID NO:12, the C44S/C48S version of the peptide β2^25 (41-65) is designated SEQ ID NO: 13, and the C44S/C48S version of peptide of β3^25 (41-65) is designated SEQ ID NO:14. […] The peptides were synthesized using tert-butoxycarbonyl chemistry on an Applied Biosystems Model 431A peptide synthesizer and purified using Sephadex G-25 column chromatography and reverse-phase HPLC (C-8 column). The purity of the synthesized peptides were verified by automated Edman degradation on an Applied Biosystems Model 477A gas/liquid phase protein sequenator with an on-line Applied Biosystems Model 120A phenylthiohydantoin amino acid analyzer. The purity of all peptides was estimated to be ≧95%.
Preparation of IntraSite® gel containing TGF-β peptantagonist (peptide TGF-beta antagonist). 1 ml of sterile 6 mM peptide β1^25 (41-65) in phosphate buffered saline or 1 ml of sterile phosphate buffered saline was vigorously mixed with 3 ml of IntraSite® gel using two 10 ml syringes connected with a three-way connector. […] However, 1.5 mM of peptide β1^25 (41-65) was used throughout the experiments described below.

[6] = tested on: TGF-β receptors; assay: Inhibition of specific binding of 125I-TGF-β3 to TGF-β receptors in mink lung epithelial cells; details: 0.1 nM 125I-TGF-β3, 2.5 hr at 0° C.; read-out: IC50 for inhibiting 125I-TGF-β3 binding to TGF-β receptors
Experimental: (§1) Specific binding of ^125I-labeled TGF-β1, TGF-β2, and TGF-β3 (^125I-TGF-β1, ^125I-TGF-β2, and ^125I-TGF-β3) to TGF-β receptors in mink lung epithelial cells. ^125I-TGF-β1, ^125I-TGF-β2, and ^125I-TGF-β3 were prepared by iodination of TGF-β1, TGF-β2, and TGF-β3 with Na^125I as described previously (Ref. 7). The specific radioactivities of ^125I-TGF-β1, ^125I-TGF-β2, and ^125I-TGF-β3 were 1-3×10^5 cpm/ng. Mink lung epithelial cells were grown on 24-well clustered dishes to near confluence in Dulbecco's modified Eagle medium (DMEM) containing 10% fetal calf serum. The epithelial cells were incubated with 0.1 nM ^125I-TGF-β1, ^125I-TGF-β2, or ^125I-TGF-β3 both with and without 100-fold excess of unlabeled TGF-β1, TGF-β2, or TGF-β3 in binding buffer (Ref. 7). After 2.5 hr at 0° C., the cells were washed two times with binding buffer, and the cell-associated radioactivity was determined. The specific binding of ^125I-labeled TGF-β isoforms to TGF-β receptors in the cells was calculated by subtracting non-specific binding (in the presence of 100-fold excess of the unlabeled TGF-β isoforms) from total binding. All experiments were carried out in triplicate cell cultures.

[7] = tested on: TGF-β receptors; assay: Inhibition of specific binding of 125I-TGF-β2 to TGF-β receptors in mink lung epithelial cells; details: 0.1 nM 125I-TGF-β2, 2.5 hr at 0° C.; read-out: IC50 for inhibiting 125I-TGF-β2 binding to TGF-β receptors
Experimental: as §1

[8] = tested on: type V TGF-β receptor (TβR-V); assay: 125I-TGF-β1-affinity labeling of cell-surface type V TGF-β receptor in mink lung epithelial cells; assay type: binding; details: various concentrations, FIG. 2 lanes 2-5
Experimental: ^125I-TGF-β1-affinity labeling of cell-surface TGF-β receptors in mink lung epithelial cells. Mink lung epithelial cells grown on 60-mm Petri dishes were incubated with 0.1 nM […] the presence of various concentrations of peptide β1^25 (41-65) or peptide β3^25 (41-65) in binding buffer. After 2.5 hr at 0° C., ^125I-TGF-β1-affinity labeling was carried out in the presence of DSS as described. The ^125I-TGF-β1-affinity-labeled TGF-β receptors were analyzed by 5% SDS-polyacrylamide gel electrophoresis under reducing conditions and autoradiography.

Chain of type V TGF-β receptor (Q07954 20-4544): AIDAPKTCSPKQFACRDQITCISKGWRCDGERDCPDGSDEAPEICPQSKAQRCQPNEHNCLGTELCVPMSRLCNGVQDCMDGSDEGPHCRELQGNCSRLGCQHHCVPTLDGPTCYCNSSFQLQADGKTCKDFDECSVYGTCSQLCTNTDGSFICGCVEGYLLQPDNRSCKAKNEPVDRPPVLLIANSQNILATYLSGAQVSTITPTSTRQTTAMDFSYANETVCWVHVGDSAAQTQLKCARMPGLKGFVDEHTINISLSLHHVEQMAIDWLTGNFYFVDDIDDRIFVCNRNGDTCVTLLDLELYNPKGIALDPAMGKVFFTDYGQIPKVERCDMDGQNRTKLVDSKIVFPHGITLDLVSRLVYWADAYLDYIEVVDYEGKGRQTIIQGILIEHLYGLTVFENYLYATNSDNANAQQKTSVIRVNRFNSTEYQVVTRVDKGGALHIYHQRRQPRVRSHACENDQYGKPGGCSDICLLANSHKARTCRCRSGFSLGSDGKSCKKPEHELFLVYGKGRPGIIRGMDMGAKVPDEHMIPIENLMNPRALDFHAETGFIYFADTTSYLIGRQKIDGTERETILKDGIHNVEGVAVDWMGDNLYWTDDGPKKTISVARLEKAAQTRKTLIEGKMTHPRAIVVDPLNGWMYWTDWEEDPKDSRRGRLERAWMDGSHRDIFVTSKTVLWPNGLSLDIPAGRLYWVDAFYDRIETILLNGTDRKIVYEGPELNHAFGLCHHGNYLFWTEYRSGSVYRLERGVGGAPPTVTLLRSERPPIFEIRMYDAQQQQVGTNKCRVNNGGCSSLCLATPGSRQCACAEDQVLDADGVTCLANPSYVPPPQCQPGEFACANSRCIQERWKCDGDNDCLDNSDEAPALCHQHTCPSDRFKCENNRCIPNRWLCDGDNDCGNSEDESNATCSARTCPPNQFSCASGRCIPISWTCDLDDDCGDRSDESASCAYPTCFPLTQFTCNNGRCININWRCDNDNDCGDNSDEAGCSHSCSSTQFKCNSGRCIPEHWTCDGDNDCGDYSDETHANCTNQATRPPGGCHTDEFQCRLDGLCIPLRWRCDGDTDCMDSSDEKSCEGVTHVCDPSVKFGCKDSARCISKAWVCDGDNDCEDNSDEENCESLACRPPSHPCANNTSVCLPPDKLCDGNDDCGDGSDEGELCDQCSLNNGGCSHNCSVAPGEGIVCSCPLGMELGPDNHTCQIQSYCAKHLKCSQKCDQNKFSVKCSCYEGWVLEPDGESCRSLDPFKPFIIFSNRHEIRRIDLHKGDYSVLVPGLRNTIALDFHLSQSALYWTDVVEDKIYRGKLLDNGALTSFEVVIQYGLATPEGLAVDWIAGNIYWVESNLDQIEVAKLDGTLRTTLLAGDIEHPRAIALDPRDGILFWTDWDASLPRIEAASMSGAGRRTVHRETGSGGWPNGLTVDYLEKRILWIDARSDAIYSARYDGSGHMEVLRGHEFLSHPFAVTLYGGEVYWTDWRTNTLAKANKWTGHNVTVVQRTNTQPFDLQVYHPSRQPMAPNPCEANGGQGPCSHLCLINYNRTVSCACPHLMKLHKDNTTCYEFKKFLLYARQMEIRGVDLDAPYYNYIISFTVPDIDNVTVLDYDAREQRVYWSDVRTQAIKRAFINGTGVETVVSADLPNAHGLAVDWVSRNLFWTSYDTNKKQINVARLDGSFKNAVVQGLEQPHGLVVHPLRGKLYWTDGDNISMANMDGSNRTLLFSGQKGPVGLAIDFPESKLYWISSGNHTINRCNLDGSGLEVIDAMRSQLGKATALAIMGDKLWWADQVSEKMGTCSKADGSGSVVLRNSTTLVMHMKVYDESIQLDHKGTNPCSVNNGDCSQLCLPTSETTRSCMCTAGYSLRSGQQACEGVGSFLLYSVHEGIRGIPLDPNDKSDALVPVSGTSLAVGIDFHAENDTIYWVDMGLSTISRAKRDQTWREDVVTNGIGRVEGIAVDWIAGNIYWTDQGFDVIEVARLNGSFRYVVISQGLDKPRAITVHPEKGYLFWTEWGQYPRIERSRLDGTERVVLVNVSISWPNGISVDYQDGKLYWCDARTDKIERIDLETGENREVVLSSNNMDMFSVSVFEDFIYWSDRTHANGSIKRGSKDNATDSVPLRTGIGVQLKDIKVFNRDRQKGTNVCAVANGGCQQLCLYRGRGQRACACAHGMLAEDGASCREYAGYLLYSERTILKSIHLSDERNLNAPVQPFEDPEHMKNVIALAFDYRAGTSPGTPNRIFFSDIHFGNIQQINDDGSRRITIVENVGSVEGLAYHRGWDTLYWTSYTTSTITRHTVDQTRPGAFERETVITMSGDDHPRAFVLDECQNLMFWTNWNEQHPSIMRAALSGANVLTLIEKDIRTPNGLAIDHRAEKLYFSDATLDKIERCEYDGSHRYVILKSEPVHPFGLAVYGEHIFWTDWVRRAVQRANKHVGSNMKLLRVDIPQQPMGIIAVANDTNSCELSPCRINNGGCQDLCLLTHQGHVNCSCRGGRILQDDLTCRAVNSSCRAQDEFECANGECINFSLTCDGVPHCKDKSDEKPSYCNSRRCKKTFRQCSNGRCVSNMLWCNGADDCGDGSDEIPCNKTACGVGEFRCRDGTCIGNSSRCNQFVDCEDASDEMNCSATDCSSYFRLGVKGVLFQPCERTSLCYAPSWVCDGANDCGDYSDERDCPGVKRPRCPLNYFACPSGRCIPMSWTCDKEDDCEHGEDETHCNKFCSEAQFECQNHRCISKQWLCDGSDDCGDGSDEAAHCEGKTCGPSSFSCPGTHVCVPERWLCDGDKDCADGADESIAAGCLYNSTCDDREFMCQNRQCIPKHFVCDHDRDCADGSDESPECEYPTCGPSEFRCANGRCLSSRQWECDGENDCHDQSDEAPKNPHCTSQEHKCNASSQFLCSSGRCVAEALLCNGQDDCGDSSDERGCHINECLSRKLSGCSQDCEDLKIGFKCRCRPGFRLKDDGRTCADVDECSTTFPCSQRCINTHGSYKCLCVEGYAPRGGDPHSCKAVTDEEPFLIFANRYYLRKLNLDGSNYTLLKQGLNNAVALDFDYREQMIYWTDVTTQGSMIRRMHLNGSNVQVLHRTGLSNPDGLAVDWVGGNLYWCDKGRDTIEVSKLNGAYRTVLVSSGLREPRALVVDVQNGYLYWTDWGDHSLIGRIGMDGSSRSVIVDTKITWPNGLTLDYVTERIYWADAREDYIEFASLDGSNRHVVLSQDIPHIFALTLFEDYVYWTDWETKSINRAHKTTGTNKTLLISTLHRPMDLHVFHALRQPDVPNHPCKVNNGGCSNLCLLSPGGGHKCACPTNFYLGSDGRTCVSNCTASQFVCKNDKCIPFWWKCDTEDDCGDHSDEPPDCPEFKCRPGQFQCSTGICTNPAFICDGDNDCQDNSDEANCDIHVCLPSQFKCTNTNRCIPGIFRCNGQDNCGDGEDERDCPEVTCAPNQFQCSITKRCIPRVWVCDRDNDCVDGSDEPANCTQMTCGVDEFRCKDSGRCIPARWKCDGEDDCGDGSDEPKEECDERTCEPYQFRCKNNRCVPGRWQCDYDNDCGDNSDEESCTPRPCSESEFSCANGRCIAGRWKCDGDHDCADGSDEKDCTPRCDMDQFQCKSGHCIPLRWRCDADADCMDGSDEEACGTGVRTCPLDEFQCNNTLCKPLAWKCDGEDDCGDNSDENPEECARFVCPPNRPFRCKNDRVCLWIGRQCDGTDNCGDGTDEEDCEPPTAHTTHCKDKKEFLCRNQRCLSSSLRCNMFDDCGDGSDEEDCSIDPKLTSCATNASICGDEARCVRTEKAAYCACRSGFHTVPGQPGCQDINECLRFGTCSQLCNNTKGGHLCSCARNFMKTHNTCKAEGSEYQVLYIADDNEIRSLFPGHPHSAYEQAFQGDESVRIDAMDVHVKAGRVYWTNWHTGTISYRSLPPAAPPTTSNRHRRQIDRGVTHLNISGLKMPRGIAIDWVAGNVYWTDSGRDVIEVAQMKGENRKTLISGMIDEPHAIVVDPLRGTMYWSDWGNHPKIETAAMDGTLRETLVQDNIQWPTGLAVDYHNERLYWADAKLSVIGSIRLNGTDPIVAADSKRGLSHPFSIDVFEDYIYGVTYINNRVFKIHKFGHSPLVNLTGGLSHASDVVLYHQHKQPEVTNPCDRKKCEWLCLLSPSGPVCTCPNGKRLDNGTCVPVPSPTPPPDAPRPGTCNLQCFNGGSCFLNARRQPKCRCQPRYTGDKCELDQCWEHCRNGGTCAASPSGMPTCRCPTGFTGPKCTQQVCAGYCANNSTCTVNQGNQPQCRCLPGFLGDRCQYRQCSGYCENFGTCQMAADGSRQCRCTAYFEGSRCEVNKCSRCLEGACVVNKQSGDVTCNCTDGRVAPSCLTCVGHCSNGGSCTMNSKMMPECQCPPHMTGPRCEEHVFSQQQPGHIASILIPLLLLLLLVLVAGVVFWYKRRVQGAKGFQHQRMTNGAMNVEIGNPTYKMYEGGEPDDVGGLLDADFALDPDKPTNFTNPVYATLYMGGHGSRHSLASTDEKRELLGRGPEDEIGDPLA

Substance: peptide β1^25 (31-55): pentacosapeptide, residues 31-55 of human TGF-β1 (KWIHEPKGYHANFCLGPCPYIWSLD)
- effect on 125I-TGF-β1 binding to TGF-β receptors [1]: did not show any effect

Substance: β1^25 (41-65) W52A/D55A (ANFCLGPCPYIASLATQYSKVLALY)
- inhibition of 125I-TGF-β1 binding to TGF-β receptors (in words) [1]: did not inhibit

Substance: TGF-β2: transforming growth factor β2
- Kd [2]: ~0.4 nM

Substance: β1^25 (41-65)-CA: peptide β1^25 (41-65) cross-linked with DSS to human carbonic anhydrase I, ~5-10 peptides per carrier protein
- IC50 [1]: ~50 nM
- IC50 lower than that of peptide β1^25 (41-65) prior to conjugation [1]: ~20 fold
- effects on the expression of PAI-1 [3]: neither showed significant effects
- growth inhibition induced by conjugate ([4]; 0.2 μM conjugate): 30-40%
- EC50 [4]: ~100 nM

Substance: β2^10 (49-58) S53A (PYLWASDTQH)
- IC50 [1]: ~40000 nM

Substance: SEQ ID NO: 13: β2^25 (41-65) with cysteine-44 and cysteine-48 replaced by serine residues (ANFSAGASPYLWSSDTQHSRVLSLY; Human)
- TGF-β antagonist activity compared with the cysteine-containing peptides [1]: same TGF-β antagonist activity
- stability in solution during storage [5]: better stability

Substance: β1^10 (49-58) S53A (PYIWALDTQY)
- inhibition of 125I-TGF-β1 binding to TGF-β receptors (in words) [1]: similar

Substance: SEQ ID NO:12: β1^25 (41-65) with cysteine-44 and cysteine-48 replaced by serine residues (ANFSLGPSPYIWSLDTQYSKVLALY; listed as Homo sapiens)
- TGF-β antagonist activity compared with the cysteine-containing peptides [1]: same TGF-β antagonist activity
- stability in solution during storage [5]: better stability

Substance: TGF-β1: transforming growth factor β1, 25-kDa dimeric protein
- Kd [2]: ~0.4 nM

Substance: peptide β1^25 (81-105): pentacosapeptide, residues 81-105 of human TGF-β1 (QALEPLPIVYYVGRKPKVEQLSNMI)
- effect on 125I-TGF-β1 binding to TGF-β receptors [1]: did not show any effect

Substance: peptide β1^25 (71-95): pentacosapeptide, residues 71-95 of human TGF-β1 (GASAAPCCVPQALEPLPIVYYVGRK)
- effect on 125I-TGF-β1 binding to TGF-β receptors [1]: did not show any effect

Substance: peptide β1^25 (51-75): pentacosapeptide, residues 51-75 of human TGF-β1 (IWSLDTQYSKVLALYNQHNPGASAA)
- effect on 125I-TGF-β1 binding to TGF-β receptors [1]: did not show any effect

Substance: β1^10 (49-58) D55A (PYIWSLATQY)
- inhibition of 125I-TGF-β1 binding to TGF-β receptors (in words) [1]: similar

Substance: peptide β1^25 (61-85): pentacosapeptide, residues 61-85 of human TGF-β1 (VLALYNQHNPGASAAPCCVPQALEP)
- effect on 125I-TGF-β1 binding to TGF-β receptors [1]: did not show any effect

Substance: SEQ ID NO:14: β3^25 (41-65) with cysteine-44 and cysteine-48 replaced by serine residues (ANFSSGPSPYLRSADTTHSTVLGLY; listed as Homo sapiens)
- TGF-β antagonist activity compared with the cysteine-containing peptides [1]: same TGF-β antagonist activity
- stability in solution during storage [5]: better stability

Substance: β1^25 (41-65)-BSA: peptide β1^25 (41-65) cross-linked with DSS to bovine serum albumin, ~5-10 peptides per carrier protein
- IC50 lower than that of peptide β1^25 (41-65) prior to conjugation [1]: ~20 fold
- effects on the expression of PAI-1 [3]: neither showed significant effects
- EC50 [4]: ~100 nM

Substance: β3^10 (49-58): decapeptide, residues 49-58 of TGF-β3 (SEQ ID NO:9) (PYLRSADTTH; listed as Homo sapiens)
- inhibitory activity on 125I-TGF-β1 binding ([1]; concentrations up to ~300 μM): did not show any inhibitory activity

Substance: CA: carrier protein human carbonic anhydrase I conjugated without peptides, control [reference compound]
- inhibition of 125I-TGF-β1 binding to TGF-β receptors (in words) [1]: did not have inhibitory activity

Substance: ANFCAGACPYLWSSDTQHSRVLSLY [peptide β2^25 (41-65)]
- IC50 [6]: ~80 nM

Substance: peptide β1^25 (21-45): pentacosapeptide, residues 21-45 of human TGF-β1 (YIDFRKDLGWKWIHEPKGYHANFCL)
- effect on 125I-TGF-β1 binding to TGF-β receptors [1]: did not show any effect

Substance: β2^10 (49-58) D55A (PYLWSSATQH)
- inhibition of 125I-TGF-β1 binding to TGF-β receptors (in words) [1]: failed to inhibit

Substance: β3^25 (41-65) R52A/D55A (ANFCSGPCPYLASAATTHSTVLGLY)
- inhibition of 125I-TGF-β1 binding to TGF-β receptors (in words) [1]: did not inhibit

Substance: ANFCSGPCPYLRSADTTHSTVLGLY [peptide β3^25 (41-65)]
- IC50 [1]: ~20000 nM
- IC50 [7]: ~20000 nM
- blocking the 125I-TGF-β1-affinity labeling of the type V TGF-β receptor [8]: weak activity

Substance: β2^10 (49-58) W52A (PYLASSDTQH)
- inhibition of 125I-TGF-β1 binding to TGF-β receptors (in words) [1]: failed to inhibit

Substance: TGF-β3: transforming growth factor β3
- Kd [2]: ~5 nM

Substance: β1^10 (49-58) W52A (PYIASLDTQY)
- inhibition of 125I-TGF-β1 binding to TGF-β receptors (in words) [1]: similar
